Reference: PubChem BioAssay (NCI)
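Dose response: 5 concentrations. Exposure: 48 h. Format: 96-well plates. Endpoint: linear interpolation; highest concentration if not reached. The concentration for 50% growth inhibition is given as GI50. At the TGI there is no net growth.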

Columns and labels:
Assay in all cases: growth of human tumour cells (NCI), 48 h
[1] = test system: ACHN renal
[2] = test system: PC-3 prostate
[3] = test system: UACC-62 melanoma
[4] = test system: UO-31 renal
[5] = test system: LOX IMVI melanoma
[6] = test system: SNB-19 CNS
[7] = test system: UACC-257 melanoma
[8] = test system: RXF 393 renal
[9] = test system: MCF7 breast
[10] = test system: MDA-MB-435

SMILES | TGI [1] | TGI [2] | TGI [3] | TGI [4] | TGI [5] | TGI [6] | TGI [7] | TGI [8] | TGI [9] | TGI [10] | GI50 [1] | GI50 [2] | GI50 [3] | GI50 [4] | GI50 [5] | GI50 [6] | GI50 [7] | GI50 [8] | GI50 [9] | GI50 [10]
COc1ccc2c(-c3cc4ccccc4o3)cc(=O)oc2c1 | > 100 µM | > 100 µM | > 100 µM | 65.6 µM | > 100 µM | > 100 µM | > 100 µM | 53.5 µM | > 100 µM | > 100 µM | – | – | – | – | – | – | – | – | – | –
CNC(=O)c1cn(C[C@H](F)CCc2ccc(NC(=O)Cc3cc(OC4CC(F)(F)C4)cc(C)n3)nn2)nn1 | > 100 µM | > 100 µM | > 100 µM | > 100 µM | > 100 µM | > 100 µM | > 100 µM | > 100 µM | > 100 µM | > 100 µM | > 100 µM | > 100 µM | > 100 µM | > 100 µM | > 100 µM | > 100 µM | > 100 µM | > 31.5 µM | > 100 µM | > 100 µM
COc1ccccc1C(=O)c1ccc2ccccc2c1 | > 100 µM | > 100 µM | > 100 µM | 64.7 µM | 31.7 µM | 78.4 µM | > 100 µM | 61 µM | > 100 µM | 8.88 µM | – | – | – | – | – | – | – | – | – | –
C[C@H]1CCC/C=C/[C@@H]2C[C@H](N)C[C@H]2[C@H](O)/C=C/C(=O)O1 | > 100 µM | > 100 µM | > 100 µM | > 100 µM | > 100 µM | > 100 µM | > 100 µM | > 100 µM | > 100 µM | > 100 µM | > 100 µM | > 100 µM | > 100 µM | > 100 µM | > 100 µM | > 100 µM | > 100 µM | > 100 µM | > 100 µM | > 100 µM
NCCN1CCN(c2nccc(-c3ccc4ccccc4c3)n2)CC1 | 3.29 µM | 4.36 µM | 3.65 µM | 2.96 µM | 3.31 µM | 5.98 µM | 3.41 µM | 3.07 µM | 3.52 µM | 3.25 µM | 1.71 µM | 1.86 µM | 1.87 µM | 1.5 µM | 1.76 µM | 2.26 µM | 1.86 µM | 1.46 µM | 1.67 µM | 1.8 µM
Cc1noc(C)c1-c1ccc2[nH]c(=O)n3c2c1OC[C@@H]3c1ccccn1 | > 100 µM | > 100 µM | > 100 µM | > 100 µM | > 32.1 µM | > 100 µM | > 100 µM | > 25.3 µM | > 100 µM | > 100 µM | 1.5 µM | 2.88 µM | 0.302 µM | 0.18 µM | 0.581 µM | 4.81 µM | 3.92 µM | 1.26 µM | 0.329 µM | 3 µM
CC1=C(C)C(=O)O[C@@H]([C@](C)(O)[C@]2(O)CC[C@@]3(O)[C@@H]4C[C@H]5O[C@]56CC=CC(=O)[C@]6(C)[C@H]4CC[C@]23C)C1 | 1.45 µM | 5.97 µM | 1.57 µM | 1.46 µM | 1.38 µM | 13.7 µM | 2.33 µM | 0.62 µM | 2.8 µM | 1.08 µM | 0.29 µM | 0.247 µM | 0.0996 µM | 0.0957 µM | 0.188 µM | 0.395 µM | 0.172 µM | 0.169 µM | 0.0668 µM | 0.0541 µM
CN(C)CCNC(=O)Nc1c(C#N)[n+]([O-])c2cc(Cl)c(Cl)cc2[n+]1[O-] | > 100 µM | > 100 µM | 66.5 µM | > 100 µM | > 100 µM | > 100 µM | > 100 µM | > 100 µM | > 100 µM | > 100 µM | 32.9 µM | 18.4 µM | 10.2 µM | 45 µM | 18.3 µM | 27.8 µM | 36.5 µM | 47.9 µM | 18.5 µM | 31 µM
Clc1ccc(OCc2nnc3n2N=C(c2ccc(Cl)cc2Cl)CS3)c(Cl)c1 | 49.9 µM | > 100 µM | 32.2 µM | 47.5 µM | 31 µM | > 100 µM | 52 µM | 25.4 µM | 92.8 µM | > 100 µM | 20.5 µM | 29.5 µM | 14.1 µM | 18.2 µM | 14.1 µM | 34.3 µM | 24 µM | 4.08 µM | 22.5 µM | 24.3 µM
Cc1ncc(NC(=O)c2ccc(CN3CCN(C)CC3)c(C(F)(F)F)c2)cc1Nc1nccc(-c2cccnc2)n1 | 27.3 µM | 32.9 µM | 26.2 µM | 24 µM | 3.18 µM | 32.1 µM | 27.9 µM | 23.8 µM | 28.7 µM | 24.4 µM | 14.2 µM | 16.9 µM | 13.2 µM | 11.7 µM | 1.64 µM | 18 µM | 14.4 µM | 11.1 µM | 13.8 µM | 12 µM
CN1CCN(Cc2ccc(NC(=O)c3ccc(C(C)(C)C)c(C#Cc4cnc5cccnn45)c3)cc2C(F)(F)F)CC1 | 3.69 µM | 4.12 µM | 4.37 µM | 3.9 µM | 2.87 µM | 4.14 µM | 3.68 µM | 3.4 µM | 3.46 µM | 2.95 µM | 1.99 µM | 1.89 µM | 2.08 µM | 1.93 µM | 1.52 µM | 2.1 µM | 1.89 µM | 1.8 µM | 1.82 µM | 1.5 µM
COC(=O)C(Cc1ccccc1)N/C=C\C(=O)c1ccc(Cl)cc1 (stereo not given) | 54.9 µM | 45 µM | 45.8 µM | > 100 µM | 39.4 µM | > 100 µM | 67.1 µM | 53.3 µM | 66.4 µM | 30.8 µM | 23.6 µM | 18.8 µM | 19.7 µM | 38.4 µM | 19.6 µM | 38 µM | 26.5 µM | 20.4 µM | 26.2 µM | 14.1 µM
C=CC(=O)N1CCN(c2ncnc3c(F)c(-c4c(O)cccc4F)c(Cl)cc23)CC1 | 17.7 µM | 30.3 µM | 22.1 µM | 29 µM | 31 µM | 27.3 µM | 30.4 µM | 14.7 µM | 29.3 µM | 23.9 µM | 4.84 µM | 7.29 µM | 9.36 µM | 14.7 µM | 12.6 µM | 14 µM | 14.4 µM | 2.27 µM | 9.68 µM | 10.3 µM
